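Cells were grown in 96-well plates and exposed to each compound for 48 hours at five concentrations; endpoints were interpolated linearly between bracketing concentrations, or set to the highest concentration if not reached. Definition used: TGI = concentration required for complete inhibition of growth.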
Tests used:
Assay in all cases: growth of human tumour cells (NCI), 48 h
MCF7 breast = test system: MCF7 breast
SW-620 colon = test system: SW-620 colon
UACC-257 melanoma = test system: UACC-257 melanoma
PC-3 prostate = test system: PC-3 prostate
NCI/ADR-RES ovarian = test system: NCI/ADR-RES ovarian
LOX IMVI melanoma = test system: LOX IMVI melanoma
NCI-H522 lung = test system: NCI-H522 lung
HOP-62 NSCLC = test system: HOP-62 NSCLC
SK-MEL-28 melanoma = test system: SK-MEL-28 melanoma
A498 renal = test system: A498 renal
MOLT-4 leukemia = test system: MOLT-4 leukemia
HOP-92 NSCLC = test system: HOP-92 NSCLC
MDA-MB-435 = test system: MDA-MB-435
SNB-19 CNS = test system: SNB-19 CNS
SF-295 CNS = test system: SF-295 CNS
KM12 colon = test system: KM12 colon
TK-10 renal = test system: TK-10 renal
U251 CNS = test system: U251 CNS
UACC-62 melanoma = test system: UACC-62 melanoma

SMILES	TGI (MCF7 breast) [µM]	TGI (SW-620 colon) [µM]	TGI (UACC-257 melanoma) [µM]	TGI (PC-3 prostate) [µM]	TGI (NCI/ADR-RES ovarian) [µM]	TGI (LOX IMVI melanoma) [µM]	TGI (NCI-H522 lung) [µM]	TGI (HOP-62 NSCLC) [µM]	TGI (SK-MEL-28 melanoma) [µM]	TGI (A498 renal) [µM]	TGI (MOLT-4 leukemia) [µM]	TGI (HOP-92 NSCLC) [µM]	TGI (MDA-MB-435) [µM]	TGI (SNB-19 CNS) [µM]	TGI (SF-295 CNS) [µM]	TGI (KM12 colon) [µM]	TGI (TK-10 renal) [µM]	TGI (U251 CNS) [µM]	TGI (UACC-62 melanoma) [µM]
O=C(O)CC(NC(=O)/C(=C/c1ccccc1)NC(=O)c1ccccc1)C(=O)O (configuration not stated)	> 100	> 100	> 100	> 100	> 100	> 100	> 100	> 100	> 100	> 100	> 100	> 100	> 100	> 100	> 100	> 100	> 100	> 100	> 100
O=C1CSC(c2ccccc2)N1c1ccc(-n2c(-c3ccccc3)nc3ccccc3c2=O)cc1 (configuration not stated)	> 100	> 100	> 100	> 100	> 100	> 100	> 100	> 100	> 100	> 100	> 100	> 100	> 100	> 100	> 100	> 100	> 100	> 100	> 100
CCOC(=O)Cc1nnc2n(-c3ccccc3)c(=O)c3ccccc3n12	> 100	> 100	> 100	> 100	> 100	> 100	> 100	> 100	> 100	> 100	> 100	> 100	> 100	> 100	> 100	> 100	> 100	> 100	> 100
C/C=C/C=C\C=C/C(O)C(C)C(CCC(C)C1OC(=O)C=CC1C)OP(=O)(O)O (configuration not stated)	0.559	1.67	3.02	0.549	2.88	1.09	2.89	0.786	2.12	0.404	0.613	0.881	0.773	1.99	1.01	1.16	1.91	2.5	1.11
N#CC(C#N)=C/C=C/c1c(Cl)cccc1Cl	7.04	4.21	2.99	3.68	4.98	3.36	3.06	8.87	3.05	6.49	9.01	4.8	4.59	> 10	4.38	3.02	6.24	4.08	2.91
CNC(=O)C1(C#N)C(c2ccccc2)C(C#N)(C(=O)NC)C1c1ccccc1 (configuration not stated)	> 100	> 100	–	> 100	> 100	> 100	> 100	> 100	> 100	> 100	> 100	> 100	> 100	> 100	> 100	> 100	> 100	> 100	–

Reference: PubChem BioAssay (NCI)
